# Key:
# MCF-7 cells = assay: MCF-7 cell proliferation (MTT); assay type: cell-based, human; details: Homo sapiens, MCF7, 72 h; read-out: Induction of cell proliferation (MCF-7 cells) Agonism at 1μΜ (% of 0.1nM E2)
# Protocol: Test compound effects on the proliferation of MCF-7 and MDA-MB-231 cells were assessed as previously described.
# ERα [1] = target: T1, ERα (Homo sapiens, UniProt P03372); assay: ERE-dependent luciferase gene transcription in MCF-7:D5L cells; assay type: cell-based; parameters: MCF-7:D5L cells, a clone of MCF-7 cells stably transfected with an Estrogen Response Element (ERE)-endowed reporter plasmid; endogenous in cells; host or cells: MCF-7:D5L (MCF-7 clone carrying pERE-Gl-Luciferase)
# T1 sequence (P03372 1-595): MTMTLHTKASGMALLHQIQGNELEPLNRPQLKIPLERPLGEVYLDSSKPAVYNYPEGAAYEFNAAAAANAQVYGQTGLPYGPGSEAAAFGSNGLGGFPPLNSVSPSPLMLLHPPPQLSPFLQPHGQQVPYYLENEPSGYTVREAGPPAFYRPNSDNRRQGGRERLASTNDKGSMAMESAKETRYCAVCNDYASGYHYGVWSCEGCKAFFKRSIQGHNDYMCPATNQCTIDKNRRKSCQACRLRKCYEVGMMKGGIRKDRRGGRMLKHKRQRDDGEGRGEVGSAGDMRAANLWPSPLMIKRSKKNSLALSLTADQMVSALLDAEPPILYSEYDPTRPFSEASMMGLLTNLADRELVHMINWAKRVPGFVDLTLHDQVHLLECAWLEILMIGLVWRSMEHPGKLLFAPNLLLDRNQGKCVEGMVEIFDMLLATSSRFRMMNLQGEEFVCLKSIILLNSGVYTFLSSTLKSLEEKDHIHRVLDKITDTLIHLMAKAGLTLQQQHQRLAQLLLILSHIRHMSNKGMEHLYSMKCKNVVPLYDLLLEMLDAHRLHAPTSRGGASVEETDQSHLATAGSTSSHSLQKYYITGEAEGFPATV
# Summary of the method: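 ERα-expressing MCF-7:D5L cells (phenol-red-free MEM) and ERβ-expressing HEK:ERβ cells (phenol-red-free DMEM) were seeded at 12,000 cells/well with insulin and 5% DCC-FBS to measure ERE-luciferase agonism. Dose-response AUC is expressed as % of the AUC of the respective reference isoflavone.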
# ERβ [2] = target: T2, ERβ (Homo sapiens, UniProt Q92731); assay: ERE-dependent luciferase gene transcription in HEK:ERβ cells; assay type: cell-based; parameters: expressed in transfected cells; host or cells: HEK-293 (HEK:ERβ clone, with pERE-tk-Luciferase); details: 18 h
# T2 sequence (Q92731 whole entry): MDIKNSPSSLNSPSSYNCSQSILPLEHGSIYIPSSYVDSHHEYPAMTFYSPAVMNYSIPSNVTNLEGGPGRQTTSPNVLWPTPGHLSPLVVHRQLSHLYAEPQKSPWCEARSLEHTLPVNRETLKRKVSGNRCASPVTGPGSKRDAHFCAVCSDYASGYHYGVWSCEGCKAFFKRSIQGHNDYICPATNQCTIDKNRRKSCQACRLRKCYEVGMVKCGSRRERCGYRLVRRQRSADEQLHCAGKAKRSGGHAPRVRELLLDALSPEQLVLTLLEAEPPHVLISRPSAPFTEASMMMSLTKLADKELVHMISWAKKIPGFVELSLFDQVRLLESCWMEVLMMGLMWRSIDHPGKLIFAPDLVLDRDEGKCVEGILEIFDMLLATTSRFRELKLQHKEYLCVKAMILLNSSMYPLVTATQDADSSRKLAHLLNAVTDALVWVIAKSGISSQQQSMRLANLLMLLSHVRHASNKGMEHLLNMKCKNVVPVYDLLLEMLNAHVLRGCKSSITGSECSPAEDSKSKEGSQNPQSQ
# ERβ [3] = target: T2, ERβ; parameters: purchased Invitrogen; details: cited from earlier work
# ERβ [4] = target: T2, ERβ; assay: ER binding competitor assay (fluorescent estrogen ES2), ERβ; parameters: purchased Invitrogen
# ERα [5] = target: T1, ERα; parameters: purchased Invitrogen; details: cited from earlier work
SMILES,activation at 1 µM (MCF-7 cells) [%],"Induction of ERE-dependent Luciferase Transcription (MCF-7:D5L cells) AUC (%) (ERα [1]; % of AUC of luciferase response of archetypal 3, 4, 5 or 8 up to 0.3, 10, 1.0 and 3.0 μM)","Induction of luciferase gene transcription through ERα, MCF-7:D5L cells, Agonism at 1μΜ (% of 0.1nM E2) (ERα [1]; compounds 1 μM, estradiol 0.1 nM, 18 h)",Induction of ERE-dependent Luciferase Transcription (MCF-7:D5L cells) EC25E2 (ERα [1]; concentration required to achieve 25% of the effect of 0.1 nM E2) [nM],"EC50 (ERα [1]; concentration required to achieve 50% of the effect of 0.1 nM E2, read-out: Induction of ERE-dependent Luciferase Transcription (MCF-7:D5L cells) EC50E2) [nM]","ERα-dependent gene transcription agonist effect compared to the effect of 0.1 nM estradiol (ERα [1]; isoflavonoids 1 μM, statistically significant effects)","activation at 1 µM (ERβ [2]; read-out: Induction of luciferase gene transcription through ERβ, HEK:ERβ cells, Agonism at 1μΜ (% of 0.1nM E2)) [%]",mean value (and the range) of previously reported RBAβ (ERβ [3]),RBAβ / RBAα (ERβ [4]; ERβ-binding selectivity),"RBAβ (ERβ [4]; RBA = (IC50 estradiol/IC50 compound) × 100, ES2 1 nM, estradiol set equal to 100)","Induction of luciferase gene transcription through ERβ, HEK:ERβ cells, Agonism at 1μΜ (% of 0.1nM E2) (ERβ [2]; compounds 1 μM, estradiol 0.1 nM)",mean value (and the range) of previously reported RBAα (ERα [5])
"O=c1c(-c2ccc(OC3O[C@H](CO)[C@@H](O)[C@H](O)[C@H]3O)cc2)coc2cc(OC3O[C@H](CO)[C@@H](O)[C@H](O)[C@H]3O)cc(O)c12 (stereo partly shown) [Compound 11, 7,4΄-di-O-glucopyranosylgenistein]",79 ± 5,75±6,114 ± 4 (Full) % of 0.1nM E2,40 ± 10,150 ± 30,very similar to estradiol,80 ± 20,–,–,–,–,–
"O=c1c(-c2ccc(O)cc2)coc2cc(O[C@@H]3O[C@H](CO)[C@@H](O)[C@H](O)[C@H]3O)cc(O)c12 [Compound 12, 7-O-β-D-glucopyranosyl-genistein]",79 ± 9,–,–,–,–,–,–,< 0.01,1.75,0.07 ± 0.02,121 ± 18 (Full) % of 0.1nM E2,< 0.01

# Reference: article PMC6324813, “Biological evaluation of isoflavonoids from Genista halacsyi using estrogen-target cells: Activities of glucosides compared to aglycones” (PLoS ONE, 2019)
